Tests used:
Test in all cases: relative viability (nuclei count vs DMSO), 5 days (fraction); higher = more cells survive
[1] = compound: c1ccc2c(CCNc3ccc(Nc4ccncc4)cc3)c[nH]c2c1 [Serdemetan] + CC(=O)c1c(C)c2cnc(Nc3ccc(N4CCNCC4)cn3)nc2n(C2CCCC2)c1=O [Palbociclib] (partner 0.5 µM)
Outline: (§1)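 The day after seeding in 1536-well plates, lung cancer cell lines were treated by pin tool with a single drug, or with a fixed anchor-drug dose together with five library-drug doses (not always all listed) in √10 steps. After 5 days, a combined fix-and-stain solution (final 0.05% Triton X-100, 1% formaldehyde, 1 ug/ml Hoechst) was added. Nuclei counted on 4× images gave relative viability as treated counts over vehicle counts, reported as the median of duplicate plates.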

[2] = compound: C1CC(C2=C(C1)C3=C(N2)C=CC(=C3)Cl)C(=O)N [Selisistat] + C[C@]1(O)C[C@@H](c2nc(-c3ccc4ccc(-c5ccccc5)nc4c3)c3c(N)nccn32)C1 [Linsitinib] (partner 1 µM)
Outline: as §1

[3] = compound: c1ccc2c(CCNc3ccc(Nc4ccncc4)cc3)c[nH]c2c1 [Serdemetan] + Cc1nc(Nc2ncc(C(=O)Nc3c(C)cccc3Cl)s2)cc(N2CCN(CCO)CC2)n1 [Dasatinib] (partner 0.075 µM)
Outline: as §1

[4] = compound: C1CC(C2=C(C1)C3=C(N2)C=CC(=C3)Cl)C(=O)N [Selisistat] + CC(C)C[C@H](NC(=O)[C@H](Cc1ccccc1)NC(=O)c1cnccn1)B(O)O [Bortezomib] (partner 0.002 µM)
Outline: as §1

Cell Line	relative viability ([1]; first compound 0.04 µM)	relative viability ([1]; first compound 0.1265 µM)	relative viability ([1]; first compound 0.4 µM)	relative viability ([1]; first compound 4 µM)	relative viability ([2]; first compound 0.4 µM)	relative viability ([2]; first compound 1.265 µM)	relative viability ([2]; first compound 4 µM)	relative viability ([2]; first compound 12.65 µM)	relative viability ([2]; first compound 40 µM)	relative viability ([3]; first compound 0.04 µM)	relative viability ([3]; first compound 0.1265 µM)	relative viability ([3]; first compound 0.4 µM)	relative viability ([3]; first compound 1.265 µM)	relative viability ([3]; first compound 4 µM)	relative viability ([4]; first compound 0.4 µM)	relative viability ([4]; first compound 1.265 µM)	relative viability ([4]; first compound 4 µM)	relative viability ([4]; first compound 12.65 µM)	relative viability ([4]; first compound 40 µM)	relative viability ([1]; first compound 1.265 µM)
NCI-H1666	0.645	0.655	0.63	0.66	1.18	0.743	0.902	0.823	0.605	0.797	0.736	0.829	0.597	0.663	1.07	0.797	0.612	0.739	0.547	
NCI-H1734	0.296	0.23	0.229	0.212	0.956	0.913	0.913	0.846	0.828	0.384	0.371	0.402	0.117	0.131	0.902	0.879	0.946	1.1	0.869	0.166
NCI-H1755	0.45	0.42	0.445	0.39	1.11	1.04	0.993	1.02	1.05	0.414	0.446	0.404	0.24	0.306	1.04	0.972	0.955	1.01	0.925	0.344
NCI-H1792	0.661	0.7	0.596	0.56	0.548	0.594		0.438	0.635	0.746	0.773	0.747	0.533	0.493	0.967	1		0.71	1.07	0.395
NCI-H1915	0.483	0.52	0.482	0.39	1.15	1.09	1.14	1.08	1.13	0.3	0.316	0.314	0.287	0.302	1.03	0.943	0.953	1.02	1	0.434
NCI-H1975	0.691	0.662	0.434	0.783	0.849	0.805	0.871	0.831	0.813	0.373	0.418	0.361		0.352	0.434	0.339	0.33	0.354	0.388	0.331
NCI-H1993	0.64	0.603	0.736	0.569	0.719	0.72		0.648	0.773	0.578	0.698	0.517	0.507	0.461	1.22	1.18		1.25	1.23	0.699
NCI-H2009	0.238	0.227	0.258	0.193	1.19	1.17	1.19	1.1	1.18	0.315	0.326	0.31	0.25	0.221	1.01	1.06	0.583	0.921	0.997	0.162
NCI-H2023	0.355	0.328	0.341	0.215	0.686	0.581	0.662	0.735	0.569	0.521	0.674	0.532	0.43	0.233	0.978	0.961	0.849	0.95	0.928	0.263
NCI-H2085	0.46	0.457	0.466	0.342	0.985	1	0.795	0.803	0.902	0.242	0.222	0.278	0.269	0.166	1.07	1.14	0.95	1.17	1.02	0.382
NCI-H2087	0.28	0.255	0.236	0.215	0.953	0.957	0.885	0.737	0.818	0.979	0.712	0.763	0.418	0.27	0.738	0.709	0.734	0.806	0.719	0.147
NCI-H2126	0.356	0.379	0.349	0.354	0.807	0.663	0.686	0.758	0.804	0.643	0.665	0.517	0.467	0.557	1.2	1.15	1.12	1.12	1.17	0.329
NCI-H2228	0.644	0.61	0.511	0.233	0.857	0.566	0.562	0.656	0.598	0.44	0.473	0.485	0.188	0.184	1.01	1.01	0.971	0.923	1	0.115
NCI-H2347	0.448	0.367	0.403	0.406	1.05	0.999	0.733	0.973	0.979	0.336	0.305	0.286	0.303	0.237	0.772	1.11		0.907	0.831	0.358
NCI-H2405	0.479	0.515	0.549	0.52	0.975			0.948	0.885	0.173	0.217	0.21	0.209	0.133	0.985	0.932	0.854	0.997	0.88	0.466
NCI-H3122	0.192	0.227	0.224	0.214	1.03	0.953	0.872	1.06	0.994	0.827	0.792	0.919		0.782	1	1	0.837	1.1	0.995	0.205
PC-3 [JPC-3]	0.562	0.492	0.528	0.519	1.01	0.968	0.954	1	0.987	0.973	0.95	1.01	0.924	0.941	0.796	0.788	0.828	0.81	0.885	0.467

From the supplement of paper PMC10307832
